{"source": "ChEMBL document CHEMBL5729144", "about": "“1-cyano-pyrrolidine derivatives as DUB inhibitors” (2022)", "data": [{"target": "T1, Ubiquitin carboxyl-terminal hydrolase 30 (Homo sapiens, UniProt Q70CQ3)", "T1 sequence (Q70CQ3 whole entry)": "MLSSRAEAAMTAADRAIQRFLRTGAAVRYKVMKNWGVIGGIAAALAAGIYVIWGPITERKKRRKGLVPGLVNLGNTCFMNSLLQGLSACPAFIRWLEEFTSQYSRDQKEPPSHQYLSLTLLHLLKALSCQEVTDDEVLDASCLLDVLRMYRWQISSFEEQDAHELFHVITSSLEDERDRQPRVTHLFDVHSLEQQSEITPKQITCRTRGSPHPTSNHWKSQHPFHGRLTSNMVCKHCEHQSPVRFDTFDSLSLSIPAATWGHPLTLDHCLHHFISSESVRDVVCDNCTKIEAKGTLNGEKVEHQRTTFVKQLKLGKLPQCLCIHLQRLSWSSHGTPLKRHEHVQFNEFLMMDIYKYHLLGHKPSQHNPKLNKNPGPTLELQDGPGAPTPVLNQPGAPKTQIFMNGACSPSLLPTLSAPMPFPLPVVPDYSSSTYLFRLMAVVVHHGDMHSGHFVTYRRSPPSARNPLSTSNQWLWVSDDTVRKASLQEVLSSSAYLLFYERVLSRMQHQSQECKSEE", "assay": "A typical 8-point dilution series would be 100, 30, 10, 3, 1, 0.3, 0.1, 0.03 μM final. Reactions were performed in duplicate in black 384 well plates (small volume, Greiner 784076) in a final reaction volume of 21 μl. Either 1 μl of 50% DMSO or diluted compound was added to the plate. USP30 was diluted in reaction buffer (40 mM Tris, pH 7.5, 0.005% Tween 20, 0.5 mg/ml BSA, 5 mM beta-mercaptoethanol) to the equivalent of 0.05 μl/well and 10 μl of diluted USP30 was added to the compound. Enzyme and compound were incubated for 30 min at room temp. Reactions were initiated by the addition of 50 nM of TAMRA labelled peptide linked to ubiquitin via an iso-peptide bond as fluorescence polarisation substrate. Reactions were read immediately after addition of substrate and following a 2 h incubation at room temperature. Readings were performed on a Pherastar Plus (BMG Labtech). λ Excitation 540 nm; λ Emission 590 nm.", "units": {"IC50": "nM"}, "values": [{"smiles": "N#Cc1cccc(-c2cccc(-c3nc(C4CCCN4C#N)no3)c2)c1F", "note": "(centres undefined)", "IC50": "< 100"}, {"smiles": "N#Cc1ccc(-c2cccc(-c3nc(C4CCCN4C#N)no3)c2)s1", "note": "(centres undefined)", "IC50": "< 100"}, {"smiles": "N#CN1CCCC1c1noc(-c2cccc(-c3cccc([N+](=O)[O-])c3)c2)n1", "note": "(centres undefined)", "IC50": "< 100"}, {"smiles": "N#Cc1cccc(-c2cc(-c3nc([C@@H]4CCCN4C#N)no3)ccn2)c1", "IC50": "< 100"}]}]}
